Measured values reported in US20260014246A1, “TREATMENT METHODS FOR VIRAL INFECTIONS” (priority 2022, published 2026).
Where two headings read alike, the source gives them in different places. Peptide text beside a SMILES is read from it.

Experiments:
Vero-E6 cells = experiment: Cytotoxic effects in Vero-E6 cells (Reliablue viability); format: cell-based
Procedure: Data for peptide 4F (Ac-[…]-NH2; SEQ ID NO: 34) is also provided. In this example, Vero-E6 cells (96 well plate) were grown in EMEM containing 10% FBS and Pen/Strep at 37° C. and 5% CO2. Once cells reached 80% confluence, medium was replaced with fresh complete medium containing the indicated concentration of peptide (FIGS. 6A-B) or peptide complexed with DMPC (1:5 ratio weight:weight). Incubation period proceeded for 24 or 48 hrs. Cells were washed and replaced with complete medium containing fluorescent Reliablue reagent. Viability was then measured. Data are presented as percent viability compared to control (no additions). Results are presented as the mean±SEM.

SARS-COV-2 Alpha [1] = details: for IC50: Alpha
SARS-COV-2 Alpha [2] = experiment: Remdizivir treatment of mice challenged with SARS-COV-2 Alpha; format: in vivo, female hACE2 Knock-in mice; details: 25 mg/kg bodyweight, single dose; 54000 pfu intranasal; untreated mice 20%
SARS-COV-2 Alpha [3] = experiment: Rechallenge with active SARS-COV-2 Alpha after EVE18 inactivated SARS-COV-2 Alpha (homologous); format: in vivo, female hACE2 Knock-in mice; details: rechallenge with 54000 pfu SARS-COV-2 Alpha eight weeks after initial challenge; 14 days
H1N1 [4] = experiment: Second challenge with active H1N1 after intranasal peptide-inactivated H1N1; format: in vivo, female C57BL/6J mice; details: 14 days
SARS-COV-2 Alpha [5] = experiment: Therapeutic dosing of EVE18 in mice challenged with SARS-COV-2 Alpha; format: in vivo, female hACE2 Knock-in mice
SARS-COV-2 Delta [6] = experiment: SARS-COV-2 Delta pre-incubated with EVE18 and given intranasally to mice; format: in vivo, female hACE2 Knock-in mice; details: 54000 pfu SARS-COV-2 Delta pre-incubated ~45 min with 10 μM peptide; intranasal; 14 days
SARS-COV-2 Alpha [7] = experiment: SARS-COV-2 Alpha pre-incubated with peptide and given intranasally to mice; format: in vivo, female hACE2 Knock-in mice; details: 54000 pfu pre-incubated ~45 min with 10 μM peptide; intranasal; 14 days
H1N1A-California = format: in vivo, female C57BL/6J mice
SARS-COV-2 Delta [8] = experiment: Rechallenge with active SARS-COV-2 Delta after EVE18 inactivated SARS-COV-2 Alpha (heterologous); format: in vivo, female hACE2 Knock-in mice; details: rechallenge with 54000 pfu SARS-COV-2 Delta nine and seven weeks after initial challenge; two groups; 14 days
H1N1 [9] = experiment: Second H1N1 challenge of mice that received H1N1 and sub-cutaneous EVE14; format: in vivo, female C57BL/6J mice; details: second challenge 1200 pfu H1N1 three weeks after the first
H1N1 [10] = experiment: Sub-cutaneous EVE14 in mice challenged intranasally with H1N1; format: in vivo, female C57BL/6J mice
[11] = [peptide-lipid] complex (DMPC 1:5 weight:weight), 48 hours incubation
[12] = 300 micrograms sub-cutaneous 2 hr prior to virus and second dose 24 hr after virus

With `CC(=O)N[C@@H](CC(C)C)C(=O)N[C@@H](CCCNC(=N)N)C(=O)N[C@@H](CCCCN)C(=O)N[C@@H](CC(C)C)C(=O)N[C@@H](CCCNC(=N)N)C(=O)N[C@@H](CCCCN)C(=O)N[C@@H](CCCNC(=N)N)C(=O)N[C@@H](CC(C)C)C(=O)N[C@@H](CC(C)C)C(=O)N[C@@H](CCCNC(=N)N)C(=O)N[C@@H](CC(=O)O)C(=O)N[C@@H](Cc1c[nH]c2ccccc12)C(=O)N[C@@H](CC(C)C)C(=O)N[C@@H](CCCCN)C(=O)N[C@@H](C)C(=O)N[C@@H](Cc1ccccc1)C(=O)N[C@@H](Cc1ccc(O)cc1)C(=O)N[C@@H](CC(=O)O)C(=O)N[C@@H](CCCCN)C(=O)N[C@H](C(=O)N[C@@H](C)C(=O)N[C@@H](CCC(=O)O)C(=O)N[C@@H](CCCCN)C(=O)N[C@@H](CC(C)C)C(=O)N[C@@H](CCCCN)C(=O)N[C@@H](CCC(=O)O)C(=O)N[C@@H](C)C(=O)N[C@@H](Cc1ccccc1)C(N)=O)C(C)C` [EVE4] (Ac-LRKLRKRLLRDWLKAFYDKVAEKLKEAF-NH2) the cytotoxic effects (Vero-E6 cells; [11]) was “lack of cytotoxic effects”, the cytotoxic effects (Vero-E6 cells; peptide, 24 hours incubation) was “lack of cytotoxic effects” and the cytotoxic effects (Vero-E6 cells; peptide, 48 hours incubation) was “lack of cytotoxic effects”. For the same compound, the “antiviral activity in comparison to remdesivir” value (SARS-COV-2 Alpha [1]) was “greater antiviral activity than remdesivir”, the “SARS-COV-2 positive area reduced to” value (SARS-COV-2 Alpha [1]; 1 μM) was about 0 and the IC50 (SARS-COV-2 Alpha [1]) was 3 to 4.5 µM.

For `CC[C@H](C)[C@H](NC(=O)[C@H](CCCNC(=N)N)NC(=O)[C@H](C)NC(=O)[C@H](Cc1c[nH]c2ccccc12)NC(=O)[C@H](CO)NC(=O)CNC(=O)[C@H](CC(C)C)NC(=O)[C@H](Cc1ccccc1)NC(=O)[C@H](CCCNC(=N)N)NC(=O)[C@H](CCCNC(=N)N)NC(=O)[C@H](Cc1ccccc1)NC(=O)CNC(C)=O)C(=O)N[C@@H](Cc1ccc(O)cc1)C(=O)N[C@@H](CCCNC(=N)N)C(=O)N[C@@H](C)C(=O)N[C@@H](Cc1ccccc1)C(=O)N[C@H](C(=O)NCC(N)=O)C(C)C` [EVEmR18L, Ac-GFRRFLGSWARIYRAFVG-NH2] (Ac-GFRRFLGSWARIYRAFVG-NH2), the cytotoxic effects (Vero-E6 cells; [11]) was “lack of cytotoxic effects”, the cytotoxic effects (Vero-E6 cells; peptide, 24 hours incubation) was “lack of cytotoxic effects” and the cytotoxic effects (Vero-E6 cells; peptide, 48 hours incubation) was “lack of cytotoxic effects”. For the same compound, the “antiviral activity in comparison to remdesivir” value (SARS-COV-2 Alpha [1]) was “greater antiviral activity than remdesivir”, the “reduction of the SARS-COV-2 positive area” value (SARS-COV-2 Alpha [1]; 1 μM) was “approximately 80%” and the “SARS-COV-2 positive area reduced to” value (SARS-COV-2 Alpha [1]; 10 μM) was about 0. It also gave an IC50 (SARS-COV-2 Alpha [1]) of 3 to 4.5 µM.

With `CCC(CC)COC(=O)[C@H](C)N[P@](=O)(OC[C@H]1O[C@@](C#N)(c2ccc3c(N)ncnn23)[C@H](O)[C@@H]1O)Oc1ccccc1` [remdesivir, reference compound] the mouse survival (SARS-COV-2 Alpha [2]) was 40% and the “reduction of the SARS-COV-2 positive area” value (SARS-COV-2 Alpha [1]; 1 μM) was “approximately 65%”.

For Ac-GFRRFYGSIWRFIRAFVG-NH2 [EVE18], the rechallenged mice survived (SARS-COV-2 Alpha [3]) was about 75%, the mortality after rechallenge (H1N1 [4]; mice first given peptide-treated H1N1 (~45 min, ~10 μM), rechallenged several weeks later with 1200 pfu active H1N1A-California) was “No mouse in this group died during this period” and the “mortality (timing)” value (SARS-COV-2 Alpha [5]; 300 micrograms 24 hr, 48 hr and 72 hrs after 54000 pfu virus) was “delayed mortality”. The survival (SARS-COV-2 Alpha [5]; 300 micrograms 24 hr, 48 hr and 72 hrs after 54000 pfu virus, 10 days, virus alone 20%) was 50%, the “mortality (timing)” value (SARS-COV-2 Alpha [5]; [12]) was “delayed the mortality” and the survival (SARS-COV-2 Alpha [5]; [12]) was 70%. The survival (SARS-COV-2 Delta [6]) was “All mice in this group survived”, the survival (SARS-COV-2 Alpha [7]) was “All mice in this group survived” and the bodyweight loss (H1N1A-California; 14 days) was “No mouse in this group died or lost significant bodyweight”. The “mortality (frank mortality or weight loss of 25%)” value (H1N1A-California; 14 days) was “No mouse in this group died” and the survival (SARS-COV-2 Delta [8]) was 85%.

Ac-RRFYGSIWRFIRAF-NH2 [EVE14] was tested, and the “mortality or weight loss after second challenge” value (H1N1 [9]) was “does not elicit mortality or weight loss”, the “bodyweight loss after second challenge” value (H1N1 [4]; mice first given H1N1A pre-incubated with peptide for 60 minutes, second challenge 1200 pfu active H1N1 several weeks later) was “no mouse in the group which underwent a second H1N1 challenge lost significant bodyweight” and the weight loss (H1N1 [10]; 300 micrograms sub-cutaneously plus 150 microgram boosters (24, 48 hr or 24-96 hr), 1200 pfu H1N1 intranasal, compared to untreated mice) was “significant delay in their weight loss which also was blunted”. For the same compound, the weight loss (H1N1 [10]; Example 13, FIG. 14: 1200 pfu H1N1 intranasal, peptide sub-cutaneously) was “much reduced weight loss”, the “survival (or bodyweight loss of less than 25%)” value (H1N1 [10]; both sub-cutaneous treatment groups compared to H1N1 alone) was “significantly increased survival” and the mice survived (SARS-COV-2 Alpha [7]) was “Ninety”. The bodyweight loss (H1N1A-California; 14 days) was “incapable of inducing weight loss or frank death”, the “death (frank death or 25% decrease in bodyweight)” value (H1N1A-California; 14 days) was “incapable of inducing death” and the “mortality (frank mortality or weight loss of 25%)” value (H1N1A-California; 14 days) was “No mice in this group died”. For the same compound, the weight loss (H1N1A-California; 14 days) was “incapable of inducing weight loss”, the survival (H1N1A-California; mouse, in vivo) was “survived this initial challenge” and the weight loss (H1N1A-California; mouse, in vivo) was “lost little weight”.
